Laboratory results as given in US9738634B2, “Heterocyclic amide compound and herbicide” (SYNGENTA PARTICIPATIONS AG, priority 2013, dated 2017).

Experiments:
Format in all cases: in vivo
bulrush [1] = assay: Test Example 2: weedkilling efficacy, growth period weed treatment in the submerged state; B: bulrush
How it was run: (§1)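 Barnyard grass, bulrush and oval-leafed pondweed sown in alluvial soil under 4 cm flooding, greenhouse 25 to 30° C. At 1-2 leaf stage, water-diluted emulsion applied to the water surface at stated g/ha dosages; effects scored 3 weeks later.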

barnyard grass [2] = assay: Test Example 2: weedkilling efficacy, growth period weed treatment in the submerged state; A: barnyard grass
How it was run: as §1

wild oat = assay: Test Example 3: weedkilling efficacy through soil treatment; G: wild oat; conditions: soil treatment, treatment dosage 320 g/ha
How it was run: (§2)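 Crop and weed responses were judged three weeks after a uniform surface spray of the water-diluted emulsion at the given g/ha rate. Seeds sat beneath about 1.5 cm of sterilized diluvial soil, and boxes stood in a greenhouse at 25 to 30° C.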

black-grass = assay: Test Example 3: weedkilling efficacy through soil treatment; H: black-grass; conditions: soil treatment, treatment dosage 320 g/ha
How it was run: as §2

crabgrass = assay: Test Example 3: weedkilling efficacy through soil treatment; D: crabgrass; conditions: soil treatment, treatment dosage 320 g/ha
How it was run: as §2

green foxtail = assay: Test Example 3: weedkilling efficacy through soil treatment; E: green foxtail; conditions: soil treatment, treatment dosage 320 g/ha
How it was run: as §2

oval-leafed pondweed [3] = assay: Test Example 2: weedkilling efficacy, growth period weed treatment in the submerged state; C: oval-leafed pondweed
How it was run: as §1

rapeseed = assay: Test Example 3: soil treatment, effect on crop; g: rapeseed; conditions: soil treatment, treatment dosage 320 g/ha
How it was run: as §2

common wind-grass = assay: Test Example 3: weedkilling efficacy through soil treatment; J: common wind-grass; conditions: soil treatment, treatment dosage 320 g/ha
How it was run: as §2

chickweed = assay: Test Example 3: weedkilling efficacy through soil treatment; N: chickweed; conditions: soil treatment, treatment dosage 320 g/ha
How it was run: as §2

transplanted rice = assay: Test Example 1: preemergent weed treatment in the submerged state, effect on crop; a: transplanted rice
How it was run: (§3)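 Pots of alluvial soil flooded 4 cm deep, sown with barnyard grass, bulrush and oval-leafed pondweed and transplanted with 2.5-leaf rice. Emulsified compound applied to the water surface on sowing day at stated g/ha; greenhouse 25–30 °C, effects assessed 3 weeks after treatment.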

Italian ryegrass = assay: Test Example 3: weedkilling efficacy through soil treatment; I: Italian ryegrass; conditions: soil treatment, treatment dosage 320 g/ha
How it was run: as §2

fig-leafed goosefoot = assay: Test Example 3: weedkilling efficacy through soil treatment; M: fig-leafed goosefoot; conditions: soil treatment, treatment dosage 320 g/ha
How it was run: as §2

redroot pigweed = assay: Test Example 3: weedkilling efficacy through soil treatment; L: redroot pigweed; conditions: soil treatment, treatment dosage 320 g/ha
How it was run: as §2

birds-eye speedwell = assay: Test Example 3: weedkilling efficacy through soil treatment; p: birds-eye speedwell; conditions: soil treatment, treatment dosage 320 g/ha
How it was run: as §2

barnyard grass [4] = assay: Test Example 1: weedkilling efficacy, preemergent weed treatment in the submerged state; A: barnyard grass
How it was run: as §3

barnyard grass [5] = assay: Test Example 3: weedkilling efficacy through soil treatment; F: barnyard grass; conditions: soil treatment, treatment dosage 320 g/ha
How it was run: as §2

corn = assay: Test Example 3: soil treatment, effect on crop; c: corn; conditions: soil treatment, treatment dosage 320 g/ha
How it was run: as §2

soybean = assay: Test Example 3: soil treatment, effect on crop; d: soybean; conditions: soil treatment, treatment dosage 320 g/ha
How it was run: as §2

catchweed = assay: Test Example 3: weedkilling efficacy through soil treatment; O: catchweed; conditions: soil treatment, treatment dosage 320 g/ha
How it was run: as §2

oval-leafed pondweed [6] = assay: Test Example 1: weedkilling efficacy, preemergent weed treatment in the submerged state; C: oval-leafed pondweed
How it was run: as §3

Indian mallow = assay: Test Example 3: weedkilling efficacy through soil treatment; K: Indian mallow; conditions: soil treatment, treatment dosage 320 g/ha
How it was run: as §2

bulrush [7] = assay: Test Example 1: weedkilling efficacy, preemergent weed treatment in the submerged state; B: bulrush
How it was run: as §3

directly sown rice = assay: Test Example 3: soil treatment, effect on crop; b: directly sown rice; conditions: soil treatment, treatment dosage 320 g/ha
How it was run: as §2

wheat = assay: Test Example 3: soil treatment, effect on crop; e: wheat; conditions: soil treatment, treatment dosage 320 g/ha
How it was run: as §2

beet = assay: Test Example 3: soil treatment, effect on crop; f: beet; conditions: soil treatment, treatment dosage 320 g/ha
How it was run: as §2

CC(C)(C(=O)Nc1cc(Cl)cc(F)n1)N1COCN(c2ccccc2)C1=O [A-2-15]
B (bulrush) weedkilling efficacy grade (bulrush [1]; treatment dosage 280 g/ha): 5 (weed kill ratio 90% or more, (practically complete withering)) | A (barnyard grass) weedkilling efficacy grade (barnyard grass [2]; treatment dosage 280 g/ha): 5 (weed kill ratio 90% or more, (practically complete withering)) | G: wild oat, weedkilling efficacy grade (wild oat): 5 (weed kill ratio 90% or more, (practically complete withering)) | H: black-grass, weedkilling efficacy grade (black-grass): 5 (weed kill ratio 90% or more, (practically complete withering)) | D: crabgrass, weedkilling efficacy grade (crabgrass): 5 (weed kill ratio 90% or more, (practically complete withering)) | E: green foxtail, weedkilling efficacy grade (green foxtail): 5 (weed kill ratio 90% or more, (practically complete withering)) | C (oval-leafed pondweed) weedkilling efficacy grade (oval-leafed pondweed [3]; treatment dosage 280 g/ha): 5 (weed kill ratio 90% or more, (practically complete withering)) | g: rapeseed, effect on crop grade (rapeseed): 4 (weed kill ratio 70% or more, less than 90%) | J: common wind-grass, weedkilling efficacy grade (common wind-grass): 5 (weed kill ratio 90% or more, (practically complete withering)) | N: chickweed, weedkilling efficacy grade (chickweed): 5 (weed kill ratio 90% or more, (practically complete withering)) | a: transplanted rice, effect on crop grade (transplanted rice; treatment dosage 280 g/ha): 4 (weed kill ratio 70% or more, less than 90%) | I: Italian ryegrass, weedkilling efficacy grade (Italian ryegrass): 5 (weed kill ratio 90% or more, (practically complete withering)) | M: fig-leafed goosefoot, weedkilling efficacy grade (fig-leafed goosefoot): 4 (weed kill ratio 70% or more, less than 90%) | L: redroot pigweed, weedkilling efficacy grade (redroot pigweed): 4 (weed kill ratio 70% or more, less than 90%) | P: birds-eye speedwell, weedkilling efficacy grade (birds-eye speedwell): 5 (weed kill ratio 90% or more, (practically complete withering)) | A: barnyard grass, weed kill grade (barnyard grass [4]; treatment dosage 280 g/ha): 5 (weed kill ratio 90% or more, (practically complete withering)) | F: barnyard grass, weedkilling efficacy grade (barnyard grass [5]): 5 (weed kill ratio 90% or more, (practically complete withering)) | c: corn, effect on crop grade (corn): 4 (weed kill ratio 70% or more, less than 90%) | d: soybean, effect on crop grade (soybean): 3 (weed kill ratio 40% or more, less than 70%) | O: catchweed, weedkilling efficacy grade (catchweed): 5 (weed kill ratio 90% or more, (practically complete withering)) | C: oval-leafed pondweed, weed kill grade (oval-leafed pondweed [6]; treatment dosage 280 g/ha): 5 (weed kill ratio 90% or more, (practically complete withering)) | K: Indian mallow, weedkilling efficacy grade (Indian mallow): 4 (weed kill ratio 70% or more, less than 90%) | B: bulrush, weed kill grade (bulrush [7]; treatment dosage 280 g/ha): 5 (weed kill ratio 90% or more, (practically complete withering)) | b: directly sown rice, effect on crop grade (directly sown rice): 5 (weed kill ratio 90% or more, (practically complete withering)) | e: wheat, effect on crop grade (wheat): 4 (weed kill ratio 70% or more, less than 90%) | f: beet, effect on crop grade (beet): 3 (weed kill ratio 40% or more, less than 70%)

Cc1nsc(NC(=O)C(C)(C)N2COCN(c3ccccc3)C2=O)n1 [A-1-18]
B (bulrush) weedkilling efficacy grade (bulrush [1]; treatment dosage 320 g/ha): 5 (weed kill ratio 90% or more, (practically complete withering)) | A (barnyard grass) weedkilling efficacy grade (barnyard grass [2]; treatment dosage 320 g/ha): 3 (weed kill ratio 40% or more, less than 70%) | G: wild oat, weedkilling efficacy grade (wild oat): 4 (weed kill ratio 70% or more, less than 90%) | H: black-grass, weedkilling efficacy grade (black-grass): 5 (weed kill ratio 90% or more, (practically complete withering)) | D: crabgrass, weedkilling efficacy grade (crabgrass): 5 (weed kill ratio 90% or more, (practically complete withering)) | E: green foxtail, weedkilling efficacy grade (green foxtail): 5 (weed kill ratio 90% or more, (practically complete withering)) | C (oval-leafed pondweed) weedkilling efficacy grade (oval-leafed pondweed [3]; treatment dosage 320 g/ha): 5 (weed kill ratio 90% or more, (practically complete withering)) | g: rapeseed, effect on crop grade (rapeseed): 4 (weed kill ratio 70% or more, less than 90%) | J: common wind-grass, weedkilling efficacy grade (common wind-grass): 5 (weed kill ratio 90% or more, (practically complete withering)) | N: chickweed, weedkilling efficacy grade (chickweed): 2 (weed kill ratio 20% or more, less than 40%) | a: transplanted rice, effect on crop grade (transplanted rice; treatment dosage 320 g/ha): 2 (weed kill ratio 20% or more, less than 40%) | I: Italian ryegrass, weedkilling efficacy grade (Italian ryegrass): 5 (weed kill ratio 90% or more, (practically complete withering)) | M: fig-leafed goosefoot, weedkilling efficacy grade (fig-leafed goosefoot): 4 (weed kill ratio 70% or more, less than 90%) | L: redroot pigweed, weedkilling efficacy grade (redroot pigweed): 4 (weed kill ratio 70% or more, less than 90%) | P: birds-eye speedwell, weedkilling efficacy grade (birds-eye speedwell): 4 (weed kill ratio 70% or more, less than 90%) | A: barnyard grass, weed kill grade (barnyard grass [4]; treatment dosage 320 g/ha): 5 (weed kill ratio 90% or more, (practically complete withering)) | F: barnyard grass, weedkilling efficacy grade (barnyard grass [5]): 4 (weed kill ratio 70% or more, less than 90%) | c: corn, effect on crop grade (corn): 0 (weed kill ratio 5% or less (practically no effect)) | d: soybean, effect on crop grade (soybean): 4 (weed kill ratio 70% or more, less than 90%) | O: catchweed, weedkilling efficacy grade (catchweed): 0 (weed kill ratio 5% or less (practically no effect)) | C: oval-leafed pondweed, weed kill grade (oval-leafed pondweed [6]; treatment dosage 320 g/ha): 5 (weed kill ratio 90% or more, (practically complete withering)) | K: Indian mallow, weedkilling efficacy grade (Indian mallow): 0 (weed kill ratio 5% or less (practically no effect)) | B: bulrush, weed kill grade (bulrush [7]; treatment dosage 320 g/ha): 5 (weed kill ratio 90% or more, (practically complete withering)) | b: directly sown rice, effect on crop grade (directly sown rice): 5 (weed kill ratio 90% or more, (practically complete withering)) | e: wheat, effect on crop grade (wheat): 0 (weed kill ratio 5% or less (practically no effect)) | f: beet, effect on crop grade (beet): 1 (weed kill ratio 5% or more, less than 20%)

COc1cc(Cl)cc(NC(=O)C(C)(C)N2COCN(c3ccccc3)C2=O)n1 [A-2-32]
B (bulrush) weedkilling efficacy grade (bulrush [1]; treatment dosage 320 g/ha): 5 (weed kill ratio 90% or more, (practically complete withering)) | A (barnyard grass) weedkilling efficacy grade (barnyard grass [2]; treatment dosage 320 g/ha): 5 (weed kill ratio 90% or more, (practically complete withering)) | G: wild oat, weedkilling efficacy grade (wild oat): 5 (weed kill ratio 90% or more, (practically complete withering)) | H: black-grass, weedkilling efficacy grade (black-grass): 5 (weed kill ratio 90% or more, (practically complete withering)) | D: crabgrass, weedkilling efficacy grade (crabgrass): 5 (weed kill ratio 90% or more, (practically complete withering)) | E: green foxtail, weedkilling efficacy grade (green foxtail): 5 (weed kill ratio 90% or more, (practically complete withering)) | C (oval-leafed pondweed) weedkilling efficacy grade (oval-leafed pondweed [3]; treatment dosage 320 g/ha): 5 (weed kill ratio 90% or more, (practically complete withering)) | g: rapeseed, effect on crop grade (rapeseed): 4 (weed kill ratio 70% or more, less than 90%) | J: common wind-grass, weedkilling efficacy grade (common wind-grass): 5 (weed kill ratio 90% or more, (practically complete withering)) | N: chickweed, weedkilling efficacy grade (chickweed): 4 (weed kill ratio 70% or more, less than 90%) | a: transplanted rice, effect on crop grade (transplanted rice; treatment dosage 320 g/ha): 4 (weed kill ratio 70% or more, less than 90%) | I: Italian ryegrass, weedkilling efficacy grade (Italian ryegrass): 5 (weed kill ratio 90% or more, (practically complete withering)) | M: fig-leafed goosefoot, weedkilling efficacy grade (fig-leafed goosefoot): 5 (weed kill ratio 90% or more, (practically complete withering)) | L: redroot pigweed, weedkilling efficacy grade (redroot pigweed): 3 (weed kill ratio 40% or more, less than 70%) | P: birds-eye speedwell, weedkilling efficacy grade (birds-eye speedwell): 5 (weed kill ratio 90% or more, (practically complete withering)) | A: barnyard grass, weed kill grade (barnyard grass [4]; treatment dosage 320 g/ha): 5 (weed kill ratio 90% or more, (practically complete withering)) | F: barnyard grass, weedkilling efficacy grade (barnyard grass [5]): 5 (weed kill ratio 90% or more, (practically complete withering)) | c: corn, effect on crop grade (corn): 1 (weed kill ratio 5% or more, less than 20%) | d: soybean, effect on crop grade (soybean): 0 (weed kill ratio 5% or less (practically no effect)) | O: catchweed, weedkilling efficacy grade (catchweed): 5 (weed kill ratio 90% or more, (practically complete withering)) | C: oval-leafed pondweed, weed kill grade (oval-leafed pondweed [6]; treatment dosage 320 g/ha): 5 (weed kill ratio 90% or more, (practically complete withering)) | K: Indian mallow, weedkilling efficacy grade (Indian mallow): 0 (weed kill ratio 5% or less (practically no effect)) | B: bulrush, weed kill grade (bulrush [7]; treatment dosage 320 g/ha): 5 (weed kill ratio 90% or more, (practically complete withering)) | b: directly sown rice, effect on crop grade (directly sown rice): 2 (weed kill ratio 20% or more, less than 40%) | e: wheat, effect on crop grade (wheat): 0 (weed kill ratio 5% or less (practically no effect)) | f: beet, effect on crop grade (beet): 4 (weed kill ratio 70% or more, less than 90%)
